In ChEMBL document CHEMBL5356958, “Discovery of a Highly Potent and Selective MYOF Inhibitor with Improved Water Solubility for the Treatment of Gastric Cancer” (J Med Chem, 2023):
Values after ≈ are worked out from the molar mass of the structure shown.

What was measured:
MKN-45 [1] = assay: Antiproliferative activity against human MKN-45 cells incubated for 48 hrs by SRB assay; format: functional, cell-based; settings: MKN-45, 48 h
MGC-803 = assay: Antiproliferative activity against human MGC-803 cells incubated for 48 hrs by SRB assay; format: functional, cell-based; settings: MGC-803, 48 h
[2] = Aqueous solubility of compound in PBS at pH 9; format: physicochemical
[3] = Aqueous solubility of compound in PBS at pH 2; format: physicochemical
[4] = Aqueous solubility of compound in PBS at pH 7.4; format: physicochemical
MKN-45 [5] = assay: Antitumor activity against human MKN-45 cells xenografted in BALB/c mouse assessed as tumor growth inhibition at 15 mg/kg/day, ip measured every 3 days for 21 days; format: functional; settings: MKN-45, 504 h, time 21 day, read-out: TGI
hERG (KCNH2) = hERG (KCNH2) (Homo sapiens, UniProt Q12809); assay: Inhibition of human ERG at 3 uM relative to control; format: toxicity
Chain of hERG (KCNH2) (Q12809 whole entry): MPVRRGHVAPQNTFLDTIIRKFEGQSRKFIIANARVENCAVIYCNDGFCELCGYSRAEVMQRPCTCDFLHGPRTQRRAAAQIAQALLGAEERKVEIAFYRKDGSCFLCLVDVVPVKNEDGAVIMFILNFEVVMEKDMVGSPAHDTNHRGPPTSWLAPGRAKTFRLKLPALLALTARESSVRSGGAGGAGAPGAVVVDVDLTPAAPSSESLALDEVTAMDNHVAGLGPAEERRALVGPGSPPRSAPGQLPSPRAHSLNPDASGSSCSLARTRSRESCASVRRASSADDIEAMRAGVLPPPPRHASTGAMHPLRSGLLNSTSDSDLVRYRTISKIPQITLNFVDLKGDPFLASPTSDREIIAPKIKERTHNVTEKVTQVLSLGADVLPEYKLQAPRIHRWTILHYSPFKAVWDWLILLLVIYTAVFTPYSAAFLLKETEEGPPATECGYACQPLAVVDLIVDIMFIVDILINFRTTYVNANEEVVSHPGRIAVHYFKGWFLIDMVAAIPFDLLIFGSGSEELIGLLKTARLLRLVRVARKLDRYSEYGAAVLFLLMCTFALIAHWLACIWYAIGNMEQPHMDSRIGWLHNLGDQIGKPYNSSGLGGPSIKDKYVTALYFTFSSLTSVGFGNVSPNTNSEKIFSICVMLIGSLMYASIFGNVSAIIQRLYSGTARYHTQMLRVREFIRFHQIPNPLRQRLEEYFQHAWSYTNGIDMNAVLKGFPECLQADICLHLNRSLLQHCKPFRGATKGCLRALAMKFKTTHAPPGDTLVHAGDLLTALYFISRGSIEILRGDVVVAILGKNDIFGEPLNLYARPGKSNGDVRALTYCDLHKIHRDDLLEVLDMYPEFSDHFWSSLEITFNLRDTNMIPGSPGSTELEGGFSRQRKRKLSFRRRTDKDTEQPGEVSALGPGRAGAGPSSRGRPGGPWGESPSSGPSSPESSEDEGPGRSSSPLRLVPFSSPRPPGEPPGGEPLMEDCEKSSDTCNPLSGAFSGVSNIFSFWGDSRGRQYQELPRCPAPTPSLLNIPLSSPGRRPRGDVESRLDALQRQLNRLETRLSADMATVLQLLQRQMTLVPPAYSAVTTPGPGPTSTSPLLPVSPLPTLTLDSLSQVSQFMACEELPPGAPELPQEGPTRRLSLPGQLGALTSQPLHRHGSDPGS

MKN-45 [6] = assay: Antitumor activity against human MKN-45 cells xenografted in BALB/c mouse assessed as tumor growth inhibition at 30 mg/kg/day, ip measured every 3 days for 21 days; format: functional; settings: MKN-45, 504 h, time 21 day, read-out: TGI
Myoferlin = Myoferlin (Homo sapiens, UniProt Q9NZM1); assay: Binding affinity to human MYOF C2D by SPR method
Chain of Myoferlin (Q9NZM1 whole entry): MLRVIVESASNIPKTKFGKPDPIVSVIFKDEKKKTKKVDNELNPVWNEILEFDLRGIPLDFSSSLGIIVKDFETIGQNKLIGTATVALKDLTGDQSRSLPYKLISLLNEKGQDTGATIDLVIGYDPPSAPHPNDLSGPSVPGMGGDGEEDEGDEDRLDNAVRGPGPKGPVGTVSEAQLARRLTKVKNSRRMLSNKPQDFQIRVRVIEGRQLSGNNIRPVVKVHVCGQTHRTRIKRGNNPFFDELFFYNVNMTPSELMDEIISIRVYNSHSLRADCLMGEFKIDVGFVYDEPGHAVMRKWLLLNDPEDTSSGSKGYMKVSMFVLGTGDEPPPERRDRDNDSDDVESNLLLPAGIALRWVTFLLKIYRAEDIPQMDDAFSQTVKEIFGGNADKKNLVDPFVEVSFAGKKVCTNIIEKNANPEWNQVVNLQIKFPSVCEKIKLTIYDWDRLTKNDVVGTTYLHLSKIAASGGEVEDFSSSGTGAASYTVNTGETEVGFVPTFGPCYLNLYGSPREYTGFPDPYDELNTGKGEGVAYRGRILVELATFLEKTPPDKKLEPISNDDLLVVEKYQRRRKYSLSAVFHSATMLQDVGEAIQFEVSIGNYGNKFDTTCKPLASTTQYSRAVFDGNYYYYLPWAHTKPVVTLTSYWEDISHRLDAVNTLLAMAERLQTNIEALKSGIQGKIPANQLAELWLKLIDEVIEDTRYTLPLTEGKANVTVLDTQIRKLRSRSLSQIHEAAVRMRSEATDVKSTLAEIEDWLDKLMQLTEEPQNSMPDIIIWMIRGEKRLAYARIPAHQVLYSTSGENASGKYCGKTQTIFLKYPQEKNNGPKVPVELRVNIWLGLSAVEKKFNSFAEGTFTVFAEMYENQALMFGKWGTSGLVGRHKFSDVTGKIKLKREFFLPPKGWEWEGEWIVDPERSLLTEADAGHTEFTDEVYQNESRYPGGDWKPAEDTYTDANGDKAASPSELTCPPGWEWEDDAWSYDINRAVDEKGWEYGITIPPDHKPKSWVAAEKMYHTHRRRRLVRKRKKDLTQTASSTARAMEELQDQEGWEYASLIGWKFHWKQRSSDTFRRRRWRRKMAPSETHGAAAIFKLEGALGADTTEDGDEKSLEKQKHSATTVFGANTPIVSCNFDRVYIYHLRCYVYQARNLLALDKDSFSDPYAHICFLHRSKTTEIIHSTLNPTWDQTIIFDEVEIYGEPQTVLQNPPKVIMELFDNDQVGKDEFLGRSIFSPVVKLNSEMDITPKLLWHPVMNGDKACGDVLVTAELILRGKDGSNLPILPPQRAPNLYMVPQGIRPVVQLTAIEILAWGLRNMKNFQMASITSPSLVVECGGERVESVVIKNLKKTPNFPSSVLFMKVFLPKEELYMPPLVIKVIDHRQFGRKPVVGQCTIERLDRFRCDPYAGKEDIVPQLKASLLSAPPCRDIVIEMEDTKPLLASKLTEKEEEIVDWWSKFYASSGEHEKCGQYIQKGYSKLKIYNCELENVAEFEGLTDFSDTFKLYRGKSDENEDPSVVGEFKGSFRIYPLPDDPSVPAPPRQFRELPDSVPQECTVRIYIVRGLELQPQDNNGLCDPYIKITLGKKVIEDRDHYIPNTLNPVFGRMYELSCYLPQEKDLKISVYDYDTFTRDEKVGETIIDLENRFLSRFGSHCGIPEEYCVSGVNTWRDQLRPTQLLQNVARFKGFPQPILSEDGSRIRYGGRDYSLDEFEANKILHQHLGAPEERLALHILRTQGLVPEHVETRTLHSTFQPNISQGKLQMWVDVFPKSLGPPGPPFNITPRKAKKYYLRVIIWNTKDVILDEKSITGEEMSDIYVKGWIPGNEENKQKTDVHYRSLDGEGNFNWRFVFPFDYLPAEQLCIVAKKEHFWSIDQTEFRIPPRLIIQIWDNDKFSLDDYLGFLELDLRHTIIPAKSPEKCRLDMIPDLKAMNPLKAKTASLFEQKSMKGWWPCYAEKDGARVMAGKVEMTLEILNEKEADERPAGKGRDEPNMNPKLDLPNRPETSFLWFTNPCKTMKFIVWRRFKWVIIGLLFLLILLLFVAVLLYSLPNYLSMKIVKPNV

CCc1nc(-c2ccccc2)n(-c2cccc(C(=O)NCCCCn3nccn3)c2)n1
IC50 (MKN-45 [1]): 3.12 µM
IC50 (MGC-803): 6.83 µM

CCc1nc(-c2ccc(OC)cn2)n(-c2cccc(C(=O)NCCCCn3nccn3)c2)n1
IC50 (MKN-45 [1]): 0.25 µM
IC50 (MGC-803): 1.7 µM

CCc1nc(-c2ccc(OC(F)(F)F)cc2)n(-c2cccc(C(=O)NCCCCn3nccn3)c2)n1
IC50 (MKN-45 [1]): 5.14 µM
IC50 (MGC-803): 3.87 µM

CCc1nc(-c2ccc(Br)cc2)n(-c2cccc(C(=O)NCCCCn3nccn3)c2)n1
IC50 (MKN-45 [1]): > 10 µM
IC50 (MGC-803): 11.1 µM

CCc1nc(-c2ccc(OC)cc2)n(-c2cccc(C(=O)NCCCn3nccn3)c2)n1
IC50 (MKN-45 [1]): > 10 µM
IC50 (MGC-803): > 10 µM

CCc1nc(-c2ccc(OC)cc2)n(-c2cccc(C(=O)NCCCCn3cc(Br)cn3)c2)n1
IC50 (MKN-45 [1]): 4.46 µM
IC50 (MGC-803): 4.38 µM

CCc1nc(-c2ccc(OC)cc2)n(-c2cccc(C(=O)NCCCCn3cnnn3)c2)n1
IC50 (MKN-45 [1]): > 10 µM
IC50 (MGC-803): > 10 µM

CCc1nc(-c2ccc(O)cc2)n(-c2cccc(C(=O)NCCCCn3nccn3)c2)n1
IC50 (MKN-45 [1]): 0.49 µM
IC50 (MGC-803): 0.94 µM

CCc1nc(-c2ccc(OC)cc2)n(-c2cccc(C(=O)NCCn3nccn3)c2)n1
IC50 (MKN-45 [1]): > 10 µM
IC50 (MGC-803): > 10 µM

CCc1nc(-c2ccc(C(F)(F)F)cc2)n(-c2cccc(C(=O)NCCCCn3nccn3)c2)n1
IC50 (MKN-45 [1]): 2.7 µM
IC50 (MGC-803): 3.14 µM

CCc1nc(-c2ccc(OC)cc2)n(-c2cccc(C(=O)NCCCCn3cncn3)c2)n1
IC50 (MKN-45 [1]): > 10 µM
IC50 (MGC-803): > 10 µM

CCc1nc(-c2ccc(OC)cc2)n(-c2cccc(C(=O)NCCCCn3ccnn3)c2)n1
IC50 (MKN-45 [1]): > 10 µM
IC50 (MGC-803): > 10 µM

CCc1nc(-c2ccc(OC)cc2)n(-c2cccc(C(=O)NCCCCn3ccnc3)c2)n1
IC50 (MKN-45 [1]): > 10 µM
IC50 (MGC-803): > 10 µM

CCc1nc(-c2ncc(OC)cn2)n(-c2cccc(C(=O)NCCCCn3nccn3)c2)n1
IC50 (MKN-45 [1]): 0.5 µM
IC50 (MGC-803): 0.56 µM

CCc1nc(-c2ccc(OC)cc2)n(-c2cccc(C(=O)NCCCCn3cc(Br)nn3)c2)n1
IC50 (MKN-45 [1]): > 10 µM
IC50 (MGC-803): > 10 µM

CCc1nc(-c2ccc(OC)cc2)n(-c2cccc(C(=O)NCCCCn3ncnn3)c2)n1
IC50 (MKN-45 [1]): 2.86 µM
solubility [2]: 186 µM (≈ 83.1 µg/mL)
IC50 (MGC-803): 0.58 µM
solubility [3]: 877 µM (≈ 392 µg/mL)
solubility [4]: 194 µM (≈ 86.7 µg/mL)

CCc1nc(-c2ccc(OC)cc2)n(-c2cccc(C(=O)NCCCCn3cccn3)c2)n1
IC50 (MKN-45 [1]): 0.54 µM
solubility [2]: 352 µM (≈ 156 µg/mL)
IC50 (MGC-803): 0.75 µM
solubility [3]: 1120 µM (≈ 499 µg/mL)
solubility [4]: 393 µM (≈ 175 µg/mL)

CCc1nc(-c2ccc(OC)cc2)n(-c2cccc(C(=O)NCCCCc3ccncc3)c2)n1
IC50 (MKN-45 [1]): > 10 µM
IC50 (MGC-803): > 10 µM

CCc1nc(-c2ccc(OC)nc2)n(-c2cccc(C(=O)NCCCCn3nccn3)c2)n1
IC50 (MKN-45 [1]): 2.75 µM
IC50 (MGC-803): 7.87 µM

CCc1ccc(-c2nc(CC)nn2-c2cccc(C(=O)NCCCCn3nccn3)c2)cc1
IC50 (MKN-45 [1]): 0.4 µM
IC50 (MGC-803): 1.01 µM

O=c1[nH]cc(F)c(=O)[nH]1 [FLUOROURACIL]
inhibition in vivo at 15 mg/kg/day (MKN-45 [5]): 39.2%

CCc1nc(-c2ccc(Cl)cc2)n(-c2cccc(C(=O)NCCCCn3nccn3)c2)n1
IC50 (MKN-45 [1]): 0.33 µM
IC50 (MGC-803): 0.73 µM

CCc1nc(-c2ccc(OC)cc2)n(-c2cccc(C(=O)NCCCCn3ncc(Br)n3)c2)n1
IC50 (MKN-45 [1]): 0.26 µM
solubility [2]: < 1.6 µM
IC50 (MGC-803): 0.27 µM
solubility [3]: 21.4 µM (≈ 11.2 µg/mL)
solubility [4]: < 1.6 µM

CCc1nc(-c2ccc(F)cc2)n(-c2cccc(C(=O)NCCCCn3nccn3)c2)n1
IC50 (MKN-45 [1]): 0.3 µM
IC50 (MGC-803): 1.37 µM

CCc1nc(-c2ccc(C)cc2)n(-c2cccc(C(=O)NCCCCn3nccn3)c2)n1
IC50 (MKN-45 [1]): 0.3 µM
IC50 (MGC-803): 0.6 µM

CCc1nc(-c2ccc(OC)cc2)n(-c2cccc(C(=O)NCCCCCCn3nccn3)c2)n1
IC50 (MKN-45 [1]): 9.59 µM
IC50 (MGC-803): > 10 µM

CCc1nc(-c2ccc([N+](=O)[O-])cc2)n(-c2cccc(C(=O)NCCCCn3nccn3)c2)n1
IC50 (MKN-45 [1]): 0.88 µM
IC50 (MGC-803): 5.52 µM

CCc1nc(-c2ccccc2OC)n(-c2cccc(C(=O)NCCCCn3nccn3)c2)n1
IC50 (MKN-45 [1]): 2.58 µM
IC50 (MGC-803): 8.31 µM

COc1cc(N)c(Cl)cc1C(=O)NC1CCN(CCCOc2ccc(F)cc2)CC1OC (stereo not drawn) [CISAPRIDE]
inhibition at 3 µM (hERG (KCNH2)): 107%

CCc1nc(-c2ncc(OC)cn2)n(-c2cccc(C(=O)NCCCCc3ccccc3)c2)n1
IC50 (MKN-45 [1]): 0.41 µM
solubility [2]: < 1.6 µM
IC50 (MGC-803): 0.25 µM
solubility [3]: 1.7 µM (≈ 0.776 µg/mL)
solubility [4]: < 1.6 µM
inhibition in vivo at 30 mg/kg/day (MKN-45 [6]): 52.2%

CCc1nc(-c2cccc(OC)c2)n(-c2cccc(C(=O)NCCCCn3nccn3)c2)n1
IC50 (MKN-45 [1]): 9.14 µM
IC50 (MGC-803): 7.29 µM

COc1ccccc1N1C(=O)CSC1c1cccc(C(=O)NCCCCc2ccccc2)c1 (stereo not drawn)
Kd (Myoferlin): 1.33 µM

CCc1nc(-c2ccc(OC)cc2)n(-c2cccc(C(=O)NCCCCc3cccs3)c2)n1
IC50 (MKN-45 [1]): 0.76 µM
IC50 (MGC-803): 0.52 µM

CCc1nc(-c2ccc(OC)cc2)n(-c2cccc(C(=O)NCCCCCn3nccn3)c2)n1
IC50 (MKN-45 [1]): 6.61 µM
IC50 (MGC-803): 2.12 µM

CCc1nc(-c2ccc(OC)cc2)n(-c2cccc(C(=O)NCCCCn3cc(F)cn3)c2)n1
IC50 (MKN-45 [1]): 5.91 µM
IC50 (MGC-803): 10.8 µM

CCc1nc(-c2ccc(OC)cc2)n(-c2cccc(C(=O)NCCCCN3CCCCC3)c2)n1
IC50 (MKN-45 [1]): > 10 µM
IC50 (MGC-803): > 10 µM

CCCc1ccc(-c2nc(CC)nn2-c2cccc(C(=O)NCCCCn3nccn3)c2)cc1
IC50 (MKN-45 [1]): 1.97 µM
IC50 (MGC-803): 4.07 µM

CCc1nc(-c2ccc(OC)cc2)n(-c2cccc(C(=O)NCCCCc3ccccn3)c2)n1
IC50 (MKN-45 [1]): > 10 µM
IC50 (MGC-803): 3.24 µM

CCc1nc(-c2ccc(OC)cc2)n(-c2cccc(C(=O)NCCCCn3nc(Br)c(Br)n3)c2)n1
IC50 (MKN-45 [1]): > 10 µM
IC50 (MGC-803): 9.8 µM
